Laboratory results published in US8026245B2, “HIV replication inhibiting purine derivatives” (Janssen Pharmaceutica N.V., priority 2003, dated 2011).
Where two headings read alike, the source gives them in different places.

How the values were obtained:
[1] = test system: HIV-1; assay: microbe, parasite or virus in culture; conditions: Human immunodeficiency virus 1, MT4, read-out: pEC50 (−logEC50) (converted)
[2] = Method B: cytotoxicity in mock-infected MT-4 cells engineered with GFP under a constitutional promotor; format: cell-based; conditions: human; Method B; mock-infected MT-4 cells with GFP, fluorescence reduced by 50%; read-out: pCC50 (−logCC50) (converted)
Protocol: (§1) In these cells, engineered with GFP (and an HIV-specific promotor), ongoing HIV-infection was measured fluorometrically. Cytotoxicity is measured in the same cells, but engineered with GFP under a constitutional promotor. The infection (or inhibition thereof) of HIV infected cells and the fluorescence of mock-infected cells is assessed by the fluorescent GFP signal generated by the two above mentioned cell lines.
(§2) The 50% cytotoxic concentration (CC50 in μM) was defined as the concentration of compound that reduced fluorescence of the mock-infected cells by 50%.

[3] = test system: HIV-1; conditions: for pSI (pEC50 − pCC50): Method B, selectivity index, ratio of CC50 to EC50
[4] = test system: mock-infected MT-4 cells; assay: Method B: cytotoxicity in mock-infected MT-4 cells engineered with GFP under a constitutional promotor; format: cell-based
Protocol: as §1, §2

[5] = test system: HIV-1; conditions: Method A
Protocol: An […] T4-cell line, MT-4, which was previously shown (Koyanagi et al., Int. J. Cancer, 36, 445-451, 1985) to be highly susceptible to and permissive for HIV infection, served as the target cell line. Inhibition of the HIV-induced cytopathic effect was used as the end point. The viability of both HIV- and mock-infected cells was assessed spectrophotometrically via the in situ reduction of 3-(4,5-dimethylthiazol-2-yl)-2,5-diphenyltetrazolium bromide (MTT). The 50% cytotoxic concentration (CC50 in M) was defined as the concentration of compound that reduced the absorbance of the mock-infected control sample by 50%. The percent protection achieved by the compound in HIV-infected cells was calculated by the following formula:
[formula] whereby (ODT)HIV is the optical density measured with a given concentration of the test compound in HIV-infected cells; (ODC)HIV is the optical density measured for the control untreated HIV-infected cells; (ODC)MOCK is the optical density measured for the control untreated mock-infected cells; all optical density values were determined at 540 nm. The dose achieving 50% protection according to the above formula was defined as the 50% effective concentration (EC50 in M). The ratio of CC50 to EC50 was defined as the selectivity index (SI). Method B

[6] = test system: mock-infected MT-4 cells; format: cell-based
Protocol: An HIV-1 transformed T4-cell line, MT-4, which was previously shown (Koyanagi et al., Int. J. Cancer, 36, 445-451, 1985) to be highly susceptible to and permissive for HIV infection, served as the target cell line. Inhibition of the HIV-induced cytopathic effect was used as the end point. The viability of both HIV- and mock-infected cells was assessed spectrophotometrically via the in situ reduction of 3-(4,5-dimethylthiazol-2-yl)-2,5-diphenyltetrazolium bromide (MTT). The 50% cytotoxic concentration (CC50 in M) was defined as the concentration of compound that reduced the absorbance of the mock-infected control sample by 50%. The percent protection achieved by the compound in HIV-infected cells was calculated by the following formula:

Structure (SMILES)	EC50 [1]	CC50 [2]	pSI (pEC50 − pCC50) [3]	pCC50 (−logCC50) [4]	pEC50 (−logEC50) [3]	pEC50 (−logEC50) ([5]; MT-4 cells, HIV-infected, MTT, 50% protection)	pSI (pCC50-pEC50) ([5]; selectivity index, ratio of CC50 to EC50)	pCC50 (−logCC50) [6]
COc1ccc(Cn2cnc3c(Nc4c(C)cc(/C=C/C#N)cc4OC)nc(Nc4ccc(C#N)cc4)nc32)cc1 [Compound 2]	1 nM	5010 nM	−3.7					
COc1ccc(Cn2cnc3c(Nc4c(C)cc(/C=C/C#N)cc4C)nc(Nc4ccc(C#N)cc4)nc32)cc1 [Compound 3]	3.16 nM	1260 nM	−2.6					
C/C(=C\C#N)c1cc(C)c(Nc2nc(Nc3ccc(C#N)cc3)nc3c2ncn3C)c(C)c1 [Compound 57]	1 nM	> 25100 nM	>4.4					
Cc1cc(/C=C/C#N)cc(C)c1Nc1nc(Nc2ccc(C#N)cc2)nc2[nH]cnc12 [Compound 34]			−3.7	4.8	8.5			
CCC(=CC#N)c1cc(C)c(Nc2nc(Nc3ccc(C#N)cc3)nc3c2ncn3C)c(C)c1 [Compound 59]			>3.9	<4.6	8.5			
COc1cc(/C=C/C#N)cc(C)c1Nc1nc(Nc2ccc(C#N)cc2)nc2[nH]cnc12 [Compound 6]	1 nM	794 nM	−2.9					
Cc1cc(/C=C/C(=O)N(C)C)cc(C)c1Nc1nc(Nc2ccc(C#N)cc2)nc2[nH]cnc12 [Compound 37]			−2.7	5.4	8.1			
Cc1cc(C)c(Nc2nc(Nc3ccc(C#N)cc3)nc3[nH]cnc23)c(C)c1 [Compound 24]						8.4 M	−4.1	4.3
CC(C#N)=Cc1cc(C)c(Nc2nc(Nc3ccc(C#N)cc3)nc3c2ncn3C)c(C)c1 [Compound 64]			>4.7	<4.6	9.3			
COc1ccc(Cn2cnc3nc(Nc4ccc(C#N)cc4)nc(Oc4c(C)cc(/C=C/C#N)cc4C)c32)cc1 [Compound 4]	3.98 nM	10000 nM	−3.4					
Cc1cc(CCC#N)cc(C)c1Nc1nc(Nc2ccc(C#N)cc2)nc2[nH]cnc12 [Compound 32]			−3.5	4.8	8.3			
Cc1cc(C#N)cc(C)c1Nc1nc(Nc2ccc(C#N)cc2)nc2[nH]cnc12 [Compound 29]			−3.8	4.9	8.7			
Cc1cc(/C=C/C#N)cc(C)c1Oc1nc(Nc2ccc(C#N)cc2)nc2[nH]cnc12 [Compound 33]			−3.5	5.0	8.5			
Cc1cc(/C=C/C#N)cc(Cl)c1Nc1nc(Nc2ccc(C#N)cc2)nc2[nH]cnc12 [Compound 54]			3.2	5.5	8.7			
COc1ccc(Cn2cnc3nc(Nc4ccc(C#N)cc4)nc(Oc4c(C)cc(/C=C/C(=O)N(C)C)cc4C)c32)cc1 [Compound 21]			−3.6	4.8	8.4			
CC(C#N)=Cc1cc(C)c(Nc2nc(Nc3ccc(C#N)cc3)nc3[nH]cnc23)c(C)c1 [Compound 62]			>4.0	<4.6	8.6			
CCC(=CC#N)c1cc(C)c(Nc2nc(Nc3ccc(C#N)cc3)nc3c2ncn3CC#N)c(C)c1 [Compound 60]			3.6	5.0	8.6			
CCN(C)C(=O)/C=C/c1cc(C)c(Oc2nc(Nc3ccc(C#N)cc3)nc3nc[nH]c23)c(C)c1 [Compound 5]	3.16 nM	5010 nM	−3.2					
COc1cc(OC)c(Nc2nc(Nc3ccc(C#N)cc3)nc3[nH]cnc23)c(OC)c1 [Compound 26]			−4.3	5.0	9.3			
CCN(C)C(=O)/C=C/c1cc(C)c(Oc2nc(Nc3ccc(C#N)cc3)nc3ncn(Cc4ccc(OC)cc4)c23)c(C)c1 [Compound 1]	3.98 nM	> 25100 nM	<−3.8					
CCn1cnc2c(Nc3c(C)cc(/C=C/C#N)cc3OC)nc(Nc3ccc(C#N)cc3)nc21 [Compound 48]	0.631 nM	> 25100 nM	>4.6					

Structure (SMILES)	EC50 [1]	CC50 [2]	pSI (pEC50 − pCC50) [3]	pCC50 (−logCC50) [4]	pEC50 (−logEC50) [3]	pEC50 (−logEC50) ([5]; MT-4 cells, HIV-infected, MTT, 50% protection)	pSI (pCC50-pEC50) ([5]; selectivity index, ratio of CC50 to EC50)	pCC50 (−logCC50) [6]
COc1cc(/C=C/C#N)cc(Cl)c1Nc1nc(Nc2ccc(C#N)cc2)nc2[nH]cnc12 [Compound 53]			2.6	6.1	8.7			
CC(=CC#N)c1cc(C)c(Nc2nc(Nc3ccc(C#N)cc3)nc3[nH]cnc23)c(C)c1 [Compound 56]			>3.8	<4.6	8.4			
N#C/C=C/c1cc(Cl)c(Nc2nc(Nc3ccc(C#N)cc3)nc3[nH]cnc23)c(Cl)c1 [Compound 55]			3.0	5.6	8.6			
COc1ccc(Cn2cnc3c(Nc4ccc(C#N)cc4)nc(Nc4c(C)cc(C#N)cc4C)nc32)cc1 [Compound 72]	3.16 nM	> 25100 nM	>3.9					
COc1cc(/C=C/C#N)cc(C)c1Nc1nc(Nc2ccc(C#N)cc2)nc2c1ncn2CCO [Compound 50]			3.4	5.8	9.2			
COc1ccc(Cn2cnc3nc(Nc4ccc(C#N)cc4)nc(Oc4c(OC)cc(/C=C/C#N)cc4OC)c32)cc1 [Compound 19]			<−4.6	<4.6	9.2			
Cc1cc(C)c(Nc2nc(Nc3ccc(C#N)cc3)nc3c2ncn3C)c(C)c1 [Compound 45]			>4.6	<4.6	9.2			
CCOc1cc(C)c(Nc2nc(Nc3ccc(C#N)cc3)nc3[nH]cnc23)c(C)c1 [Compound 30]			−4.0	4.8	8.8			
C/C(C#N)=C(/C)c1cc(C)c(Nc2nc(Nc3ccc(C#N)cc3)nc3[nH]cnc23)c(C)c1 [Compound 65]			3.1	5.0	8.1			
COc1cc(/C=C/C#N)cc(C)c1Nc1nc(Nc2ccc(C#N)cc2)nc2c1ncn2CC#N [Compound 52]	0.501 nM	2000 nM	3.6					
Cc1cc(/C=C/C#N)cc(C)c1Nc1nc(Nc2ccc(C#N)cc2)nc2ncn(C)c12 [Compound 44]			3.3	4.7				
COc1cc(C=C(C)C#N)cc(C)c1Nc1nc(Nc2ccc(C#N)cc2)nc2[nH]cnc12 [Compound 63]			3.3	5.1	8.4			
COc1ccc(Cn2cnc3c(Nc4c(C)cc(/C=C/C#N)cc4Cl)nc(Nc4ccc(C#N)cc4)nc32)cc1 [Compound 14]			−2.8	5.5	8.3			
Cc1cc(OCC#N)cc(C)c1Nc1nc(Nc2ccc(C#N)cc2)nc2[nH]cnc12 [Compound 31]			<−4.7	<4.6	9.3			
COc1ccc(Cn2cnc3nc(Nc4ccc(C#N)cc4)nc(Oc4c(C)cc(/C=C/C(N)=O)cc4C)c32)cc1 [Compound 20]			−3.2	5.2	8.4			
COc1cc(/C=C/C#N)cc(OC)c1Oc1nc(Nc2ccc(C#N)cc2)nc2[nH]cnc12 [Compound 35]			−3.5	4.9	8.4			
COc1ccc(Cn2cnc3c(Nc4c(C)cc(CCC#N)cc4C)nc(Nc4ccc(C#N)cc4)nc32)cc1 [Compound 13]			−3.1	5.2	8.2			
COc1ccc(Cn2cnc3c(Nc4ccc(C#N)cc4)nc(Nc4c(C)cc(/C=C/C#N)cc4C)nc32)cc1 [Compound 73]	5.01 nM	> 25100 nM	>3.7					
COc1cc(/C=C/C#N)cc(C)c1Nc1nc(Nc2ccc(C#N)cc2)nc2c1ncn2C(C)C [Compound 49]			3.5	5.5	9.0			
Cc1cc(C#N)cc(C)c1Nc1nc(Nc2ccc(C#N)cc2)nc2c1ncn2C [Compound 46]			>4.8	<4.6	9.4			
CCC(=CC#N)c1cc(C)c(Nc2nc(Nc3ccc(C#N)cc3)nc3[nH]cnc23)c(C)c1 [Compound 58]			3.2	5.1	8.3			
